“And” between values parts separate entries of the source, which are not always exact repeats. Equal entries are not always repeated. Where two headings read alike, the source gives them in different places.
Key:
Folsomia candida [1] = assay: Multigeneration toxicity test (survival and reproduction) with springtails in spiked LUFA 2.2 soil; format: in vivo; conditions: for EC50: number of juveniles
Procedure: F. candida were taken from cultures at the Department of Ecological Science at the Vrije Universiteit in Amsterdam. To obtain age-synchronized animals, adults from the culture were separated in boxes with a layer of plaster of Paris over a period of 2–3 days to lay eggs, after which they were removed. After removal of the adults, the eggs were incubated under a 12 h light/12 h dark regime at 20 °C and 75% relative humidity, where they hatched and grew. Juveniles of 10–12 days old were used for testing.
All tests were performed in the natural standard LUFA 2.2 (Lufa Speyer, Germany), a loamy sand with 1.59 ± 0.13% organic carbon, pH in 0.01 M CaCl2 of 5.4 ± 0.2, and water holding capacity (WHC) of 43.5 ± 2.8% of its dry weight.
Pure imidacloprid and thiacloprid (purity 98%) were kindly provided by Bayer CropScience, Monheim, Germany. Test concentrations of imidacloprid and thiacloprid were based on the results of earlier tests. Stock solution of both compounds in water were prepared, to spike the chemicals into the soil and at the same time bringing moisture content to the desired level of 50% of the WHC. To ensure complete thiacloprid dissolution, a small amount of acetone was added to the stock solution. This stock solution was used to spike soil with the highest test concentration and further diluted for spiking soil with the lower concentrations tested. Considering the low amount of acetone needed to make thiacloprid completely dissolve, no attempts were made to correct for that by adding acetone to the lower concentrations and control in the multigeneration test. All soils were thoroughly mixed to achieve a homogenous distribution of the test chemicals in the test soil.
Multigeneration tests started with a control, […] imidacloprid (0, 0.001, 0.003, 0.01, 0.03, 0.1, 0.3, 1.0 mg/kg dry soil) and 9 thiacloprid concentrations (0, 0.0015, 0.0045, 0.014, 0.041, 0.11, 0.31, 1.1, 3.3, 10.0 mg/kg dry soil). Batches of soil sufficient to perform three toxicity tests were prepared. After filling test jars for the parent generation exposure, the remaining spiked soil was stored in glass jars in a climate room at 20 °C for subsequent exposure of the next two generations. Moisture content of the spiked soil was checked regularly by weighing the jars, and replenished by adding deionized water if needed.
After 28 days (35 days for the second generation), the juveniles from the same exposure concentration were pooled in the same container with a moist plaster of Paris bottom and incubated overnight before being transferred to the next cycle of exposure. This experiment spanned a total of three continuous generations (referred to as F0, F1, and F2).

[2] = Chemical analysis of concentrations in test soil (LC-MS) and degradation half-life (DT50); format: physicochemical
Procedure: Soil samples for chemical analysis of imidacloprid and thiacloprid in the test soil were taken at the start of the exposure of each new generation.
The analytical method to determine actual imidacloprid and thiacloprid concentrations in the test soils followed the principles of the QuEChERS extraction method modified from Anastasiades et al. ([2003]) and Payá et al. ([2007]). Briefly, the procedure used was as follows: approx. 1 g moist soil was taken for low concentration treatments (<1 mg/kg), and 50 µL internal standard (Imidacloprid-d4 and Thiacloprid-d4, 250 µg/L) was added. The sample was shaken for 20 min at 250 rpm with 2 mL methanol and centrifuged for 3 min at 1500 rpm. The methanol phase was passed through a granular Na2SO4 column, evaporated till dryness and the residue taken up in 3 mL acetonitrile. For high concentration samples (>1 mg/kg), the soil was first shaken with methanol and centrifuged. Subsequently an aliquot of 100 µL was taken and together with 50 µL internal standard (Imidacloprid-d4 and Thiacloprid-d4, 250 µg/L) added to 1 mL methanol, passed through a granular Na2SO4 column, evaporated to dryness and taken up in 3 mL acetonitrile. For clean-up, the acetonitrile extract was added to a tube filled with Supel QuE (C18 150 mg, PSA 150 mg, MgSO4 900 mg, Sigma Aldrich), shaken by hand for 2 min and centrifuged for 3 min at 3000 rpm. The supernatant was evaporated till dryness under gentle nitrogen stream and the residue taken up in 200 µL of a water-methanol (9/1) mixture.
Extracts were analyzed using LC-MS and quantified by isotope dilution (imidacloprid-d4 and thiacloprid-d4). The neonicotinoids were separated on a 100 × 2.1 mm, 2.6 µm Kinetex XB-C18 column (Phenomenex), applying a gradient of 5 mM ammonium formate pH 4 buffer and methanol, at a flow rate of 0.3 mL/min. The LC system (Agilent 1200 series) was coupled to a 6410 triple quadrupole MS (Agilent) using electrospray ionization (ESI) with data acquisition in positive ion mode. The transitions for imidacloprid were 256.1 > 175/209 (quantifier/qualifier) and for imidacloprid-d4 260 > 179. For thiacloprid the transitions were253.1 > 126/90 (quantifier/qualifier) with 257 > 126 for thiacloprid-d4.
Using data on the imidacloprid and thiacloprid concentrations measured at different times after spiking the soil in the multigeneration test, half-life (DT50) values were estimated assuming first order degradation kinetics. The equation C = C0 * e^−k*t was fitted to the data, with C = concentration at time t in days, C0 is concentration at t = 0 and k = degradation rate constant (day^−1). DT50 was derived as ln(2) / k.

honeybees = tested on: honeybees; design: method as in Iwasa et al. (2004); conditions: acute dermal exposure; ref Iwasa et al. (2004); cited from earlier work
Aphis gossypii = tested on: Aphis gossypii; design: method as in Shi et al. (2011); conditions: exposed dermally for 48 h; ref Shi et al. (2011); cited from earlier work
Folsomia candida [3] = conditions: cited from earlier work
[4] = F0 generation, 28 days, LUFA 2.2 soil, nominal concentrations
[5] = F1 generation, 35 days, soil spiked at start of F0, nominal concentrations
[6] = F2 generation, 28 days, soil spiked at start of F0, nominal concentrations
[7] = range over the three generations, Lufa 2.2, pure compound, this study
[8] = 28-day exposure, Lufa 2.2, ~3.0% OM, pure, ref De Lima e Silva et al. (submitted)
[9] = artificial soil, 10% OM, based on regression analysis, ref Reynolds (2008)

SMILES: O=[N+]([O-])NC1=NCCN1Cc1ccc(Cl)nc1 [Imidacloprid, imidacloprid]
- NOEC (Folsomia candida [1]; [4]): 0.1 mg/kg dry soil and 0.10 mg/kg dry soil
- LC50 (Folsomia candida [1]; F0 generation, 28 days, adult survival, LUFA 2.2 soil, nominal concentrations): 0.44 mg/kg dry soil
- EC50 (Folsomia candida [1]; [4]): 0.29 mg/kg dry soil
- EC50 (Folsomia candida [1]; [5]): 0.12 mg/kg dry soil
- LC50 (Folsomia candida [1]; [5]): 0.39 mg/kg dry soil
- NOEC (Folsomia candida [1]; [5]): 0.1 mg/kg dry soil and 0.10 mg/kg dry soil
- EC50 (Folsomia candida [1]; [6]): 0.14 mg/kg dry soil
- LC50 (Folsomia candida [1]; [6]): 0.21 mg/kg dry soil
- NOEC (Folsomia candida [1]; [6]): 0.1 mg/kg dry soil and 0.10 mg/kg dry soil
- EC10 (Folsomia candida [1]; Folsomia candida, in vivo, 35 days, pH 5.4): 0.080 mg/kg dry soil
- EC50, range over generations (Folsomia candida [1]; [7]): 0.12–0.29 mg/kg dry soil
- LC50, range over generations (Folsomia candida [1]; [7]): 0.21–0.44 mg/kg dry soil
- concentration, % of the nominal concentration ([2]; LUFA 2.2 soil, after 28 days of incubation at 20 °C, all concentrations analysed): 68.1–83.8%
- recovery, % of the nominal concentration ([2]; LUFA 2.2 soil, start of F0 exposure (T=0)): 77.6–89.9%
- concentration measured in soil ([2]; T=0, nominal 0.01, mean ± SD (n=3)): 0.0078±0.0028 mg/kg dry soil
- concentration measured in soil ([2]; T=0, nominal 0.1, mean ± SD (n=3)): 0.082±0.0018 mg/kg dry soil
- concentration measured in soil ([2]; T=0, nominal 0.3, mean ± SD (n=3)): 0.27±0.014 mg/kg dry soil
- concentration measured in soil ([2]; T=0, nominal 1.0, mean ± SD (n=3)): 0.86±0.022 mg/kg dry soil
- concentration measured in soil ([2]; T=28 d, nominal 0.1, mean ± SD (n=3)): 0.068±0.0025 mg/kg dry soil
- concentration measured in soil ([2]; T=28 d, nominal 0.3, mean ± SD (n=3)): 0.23±0.0092 mg/kg dry soil
- concentration measured in soil ([2]; T=28 d, nominal 1.0, mean ± SD (n=3)): 0.84±0.083 mg/kg dry soil
- half-life ([2]; pH 5.4): ≥ 125 days
- times more toxic than thiacloprid (honeybees): about 800 times
- times more sensitive than to thiacloprid (Aphis gossypii): about 7.5 times
- EC50 (Folsomia candida [3]; [8]): 0.097-0.30 mg/kg dry soil
- LC50 (Folsomia candida [3]; [8]): 0.20-0.65 mg/kg dry soil
- NOEC (Folsomia candida [3]; active substance, ref EFSA (2008)): 1.25 mg/kg dry soil
- EC50 reported by Reynolds (Folsomia candida [3]; [9]): 0.60 mg/kg
- LC50 reported by Reynolds (Folsomia candida [3]; [9]): 1.38 mg/kg

Reference: PMC5397431, “Multigeneration toxicity of imidacloprid and thiacloprid to Folsomia candida” (Ecotoxicology (London, England), 2017)
